Results reported in patent publication US20140010806A1, “Treatment of Ocular Diseases” (priority 2012, published 2014).

Biological target: NF-κB
Test: NF-κB-bla THP-1 β-lactamase reporter assay, activation of NF-κB by TNFα or LPS
Format: cell-based, human
Settings: positive control assays; 1 hour β-lactamase substrate incubation
Excerpt: Reduction of inflammation. Inhibition of NF-κB by 17α-ethynylandrost-5-ene-3β,7β,17β-triol in vitro. A number of compounds were used to inhibit activation of NF-κB by TNF-α or LPS in human cells in vitro. Activation of NF-κB increases expression of a number of genes that mediate inflammation. This protocol used human THP-1 cells, which are human mononuclear blood cells with a monocyte phenotype. The cell line, referred to as NF-κB-bla THP-1, contained a β-lactamase reporter gene under the control of the NF-κB response element (Invitrogen, CellSensor™, product No. K1176). In this cell line, the β-lactamase reporter gene is stably integrated in the THP-1 cells. This cell line was used to detect agonists or antagonists of the NF-κB signaling pathway. These NF-κB-bla THP-1 cells respond to the presence of tumor necrosis factor alpha (TNFα) or bacterial lipopolysaccharide (LPS) by increased expression of the β-lactamase reporter gene. The level of β-lactamase enzyme activity was measured by fluorescence resonance energy transfer ratiometric detection. […]
The NF-κB-bla THP-1 cells were maintained by passaging or feeding as needed. […] The cells were plated at 20,000 cells/well in a 384-well Black-wall, clear bottom assay plates (Costar #3712-TC low fluorescence background plates) approximately 24 hours before adding either TNFα at 10 ng/mL or LPS at 0.2 ng/mL to activate NF-κB. […]

- EC50 concentration for TNFα, activation of NF-κB: 0.20 ng/mL
Substance: TNFα
